Data reported in patent US10561618B2, “Orally available pharmaceutical formulation suitable for improved management of movement disorders” (Contera Pharma ApS, priority 2012, dated 2020).

Columns and labels:
[1] = Pharmacokinetic profiling of the fixed dose combination product; assay type: in vivo; conditions: cynomolgus monkeys, oral; for Time of maximum plasma concentration: one buspirone (IR)/zolmitriptan (CR) 10 mg/1 mg tablet (batch 0614/2012), n=4
From the text: Four non-naïve male cynomolgus monkeys (3.5 to 7 kg; Hainan Jingang Laboratory Animal Co. Ltd.) were used to evaluate the pharmacokinetics of the fixed dose combination product of the present invention. Animals were individually housed in stainless-steel mesh cages during in-life in accordance with the National Research Council “Guide for the Care and Use of Laboratory Animals” and fed twice daily with 120 g of Certified Monkey Diet daily (Beijing Vital Keao Feed Co., Ltd. Beijing, P. R. China). At test occasion, animals were fed the day before at 3:30 to 4:00 pm and the remaining food removed after approximately 1 to 1.5 hours of feeding (at 5:00 pm). Food was withheld until 4-hour post-dosage. The study was conducted in compliance with the Animal Welfare Act, the Guide for the Care and Use of Laboratory Animals, and the Office of Laboratory Animal Welfare (OLAW).
Each monkey was dosed one buspirone hydrochloride (IR)/zolmitriptan (CR) 10 mg/1 mg combination product (batch 0614/2012) orally using tablet gun, placing one tablet beyond the root of tongue. Subsequently, the animals' throat was massaged to aid passage of the tablet down the esophagus and 5-10 mL drinking water injected into its mouth using a syringe. After administration of drinking water, the animals' jaw was checked to see if the tablet was swallowed.
Blood samples were draw from a peripheral vessel from restrained, non-sedated animals at the following time points: pre-dose, 15, 30, 60 min, 2, 4, 8, 12 and 24 h post-dose into (K2) EDTA-coated tubes. Plasma was obtained from the blood samples by centrifugation (3,000×g for 10 minutes at 2 to 8° C.) within one hour of collection and stored frozen in a freezer at −70° C. until bio-analysis.
Analytes were extracted from plasma by mixing 200 μL 0.1% formic acid (FA) in 50% acetonitrile (ACN)/methanol (MeOH) containing 100 ng/mL Labetalol as internal standard with 50 μL plasma sample, followed by centrifugation (4000 rpm for 20 min).
Subsequently, 100 μL of supernatant was removed and mixed with 150 μL 0.1% FA in 25% MeOH/Water, vortexed 10 min and centrifuged for 10 min at 4000 rpm. Chromatographic separation from other constituents of the sample was achieved by ultra-performance liquid chromatography (Acquity, Waters), followed by tandem mass spectrometry (MS/MS) detection (API 4000, AB Sciex Instruments), injecting 20 μL sample. The analytes were separated by an ACE 5 phenyl (2.1×100 mm ID) column maintained at 40° C., using a gradient of A: 10 mM ammonium acetate in water and solvent B: 0.1% FA in 95% ACN)/water (table 4).
Buspirone, zolmitriptan and labetalol were detected at parent/daughter molecular mass of 386.10/122.20, 288.10/58.20 and 329.20/161.90 m/z, and a collision energy of 41, 25 and 50 eV, respectively. Retention times were 2.3, 1.3 and 2.0 min for buspirone, zolmitriptan and labetalol, respectively. Peak areas correlated linearly (r^2>0.997, 1/x^2 weighting) with buspirone and zolmitriptan concentrations in the range 0.5-1000 ng/mL. Lower limit of quantification (LLOQ) was 0.5 ng/mL for buspirone and zolmitriptan based on a signal-to-noise ratio>10:1.
The PK analysis was performed with non-linear mixed effects modelling using Phoenix NMLE 1.2 (Pharsight Corporation). A one- or two-compartment model with first-order absorption and elimination rate was fitted to the time-concentration profiles. Furthermore, model development included modelling of the data with an absorption lag-time (Tlag). To adequately characterise a potential lag-time, the plasma concentrations<LLOQ (Lower Limit of Quantification) was fixed to ½ of LLOQ (0.25 ng/mL) for the sample just prior to the first quantifiable concentration. Best model fit was evaluated based on basic goodness-of-fit plots, parameter precision, visual predictive check and objective function value. A drop in objective function value of […] for nested models with one added parameter was considered a significant improvement in model fit.

[2] = tested on: unilaterally 6-OHDA-lesioned rats; conditions: zolmitriptan administered alone; WO2012/048710; cited from earlier work
[3] = tested on: unilaterally 6-OHDA-lesioned rats; assay: 6-OHDA rat model: L-DOPA induced AIMs and drugs screening test; assay type: in vivo; conditions: for L-DOPA induced AIMs: Example II, 30 min before test
[4] = tested on: Parkinson's disease; conditions: cited from earlier work
[5] = tested on: LID; conditions: cited from earlier work
[6] = batch 0614/2012, non-linear mixed effects modelling
[7] = batch 0614/2012, non-linear mixed effects modelling, value (% CV)
[8] = Example VI, buspirone 0.25 or 0.5 mg/kg s.c., tandospirone 1 or 2 mg/kg i.p., 25 min before test

For CN(C)CCc1c[nH]c2ccc(C[C@H]3COC(=O)N3)cc12 [zolmitriptan, (S)-4-({3-[2-(dimethylamino)ethyl]-1H-indol-5-yl}methyl)-1,3-oxazolidin-2-one], the “Time plasma concentration is sustained above limit of quantification” value ([1]; batch 0614/2012, LLOQ 0.5 ng/mL) was 12 h, the “Absorption rate, slower compared to buspirone” value ([1]; batch 0614/2012, model) was 3 fold and the “V/F IIV (inter-individual variability)” value [1, 6] was 0.1%. The “tvTlag (absorption lag-time)” value [1, 7] was 0.44 h, the “tvV/F (volume of central compartment)” value [1, 7] was 16 (62) L/kg and the “tvka (absorption rate)” value [1, 7] was 0.32 (55) h^-1. For the same compound, the “tyCL/F (clearance)” value [1, 7] was 7.0 (11) L/h/kg, the “tvTlag (absorption lag-time)” value ([1]; batch 0614/2012, non-linear mixed effects modelling, value (% CV), listed as Zolmitriptan) was 0.44 (3.8) h and the “Time of maximum plasma concentration” value [1] was 4 h. The “Inhibition of LID in an animal model for LID” value [2] was “generally fails to inhibit LID”.

With O=C1CC2(CCCC2)CC(=O)N1CCCCN1CCN(c2ncccn2)CC1 [buspirone, 8-[4-(4-pyrimidin-2-ylpiperazin-1-yl)butyl]-8-azaspiro[4.5]decane-7,9-dione] the “L-DOPA-induced dyskinesia (AIMs)” value ([3]; Example I, buspirone 0.5 mg/kg i.p. given alone) was “only partly reduced AIM”, the “L-DOPA-induced dyskinesia (AIMs)” value [3, 8] was “significantly reduced L-DOPA-induced dyskinesia” and the “CL/F IIV (inter-individual variability)” value [1, 6] was 37%. For the same compound, the “ka IIV (inter-individual variability)” value [1, 6] was 5.4%, the “tvQ/F (inter-compartmental clearance)” value [1, 7] was 18 (11) L/h/kg and the “tvTlag (absorption lag-time)” value [1, 7] was “no observable lag-time”. The “tvV2/F (volume of peripheral compartment)” value [1, 7] was 1259 (29) L/kg, the “tvV/F (volume of central compartment)” value [1, 7] was 3.9 (26) L/kg and the “tvka (absorption rate)” value [1, 7] was 1.0 (13) h^-1. For the same compound, the “tyCL/F (clearance)” value [1, 7] was 13 (124) L/h/kg, the “Time of maximum plasma concentration” value [1] was “around 0.5 h” and the “Effect on Parkinson's disease or dyskinesia” value ([4]; doses 10-60 mg/day) was “did not have any effects on Parkinson's disease or dyskinesia”. The Disability ratings ([4]; higher doses (100 mg/day)) was “significant worsening of disability ratings” and the Effect on dyskinesia ([4]; higher doses (100 mg/day)) was “reduced dyskinesia”.

For O=C1[C@@H]2[C@@H]3CC[C@@H](C3)[C@@H]2C(=O)N1CCCCN1CCN(c2ncccn2)CC1 [tandospirone, (1R,2R,6S,7S)-4-{4-[4-(pyrimidin-2yl)piperazin-1-yl]butyl}-4-azatricyclo[5.2.1.02,6]decane-3,5-dione], the “L-DOPA induced AIMs” value ([3]; tandospirone 1 mg/kg i.p. alone) was “partially and briefly reduce AIMs”, the “L-DOPA induced AIMs” value ([3]; tandospirone 2 mg/kg i.p. alone) was “partially and briefly reduce AIMs” and the “L-DOPA-induced dyskinesia (AIMs)” value [3, 8] was “significantly reduced L-DOPA-induced dyskinesia”.

For Fc1ccc(-c2cncc(CNC[C@H]3CCc4ccccc4O3)c2)cc1 [sarizotan, 1-[(2R)-3,4-dihydro-2H-chromen-2-yl]-N-([5-(4-fluorophenyl)pyridin-3-yl]methyl)methanamine], the “Effect on LID” value ([5]; phase 2A study and open labeled study) is listed as “reduced LID” and the “Effect compared to placebo” value ([5]; several large phase 2b studies) is listed as “no significant effects”.
